In patent US9845297B2, “Antimicrobial compounds and methods of making and using the same” (Melinta Therapeutics, Inc., priority 2009, dated 2017):

Tested on: Eschericia coli strain ATCC25922
Assay: standard microdilution assay to determine minimum inhibitory concentrations (MICs)
Format: cell-based
Conditions: Escherichia coli, ATCC25922, Eschericia coli strain ATCC25922, standard microdilution assay; read-out: E. coli ATCC25922 MIC
How it was run: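 Broth microdilution per CLSI protocols, typically 100 µL final volume, against E. coli ATCC25922. MIC values scored as +/− against a cutoff of 16 micrograms/ml.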

| SMILES | MIC [µg/mL] |
| --- | --- |
| CN(CCCN(CCCN)Cc1ccc(-c2c[nH]c(NC(=O)Nc3cc(F)c(F)cc3F)nc2=O)cc1)C(=N)N [Compound 366] | > 16 |
| O=C(Nc1nc(=O)c(-c2ccc(CNCc3ncc[nH]3)cc2)c[nH]1)Nc1cc(F)c(F)cc1F [Compound 313] | > 16 |
| NCCCNCc1ccc(-c2c[nH]c(NC(=O)Nc3cc([N+](=O)[O-])ccc3Cl)nc2=O)cc1F [Compound 457] | > 16 |
| CSCCCNCc1ccc(-c2c[nH]c(NC(=O)Nc3cc(F)c(F)cc3F)nc2=O)cc1 [Compound 281] | > 16 |
| NCCCN(CCCN)Cc1ccc(-c2c[nH]c(Nc3ccc(C(F)(F)F)cc3)nc2=O)cc1F [Compound 489] | > 16 |
| NCCCCN1CCN(c2c[nH]c(NC(=O)Nc3cc(F)c(F)cc3F)nc2=O)CC1 [Compound 520] | > 16 |
| NCCCNCc1ccc(-c2c[nH]c(NC(=O)Nc3cc(F)c(F)cc3F)nc2=O)cn1 [Compound 551] | > 16 |
| N=C(N)NCCCC(CCCN)Cc1ccc(-c2c[nH]c(NC(=O)NCCc3cccc(Cl)c3)nc2=O)cc1 (stereo not shown) [Compound 466] | > 16 |
| N=C(N)NCCCNCc1ccc(-c2c[nH]c(NC(=O)NC3CN(S(=O)(=O)c4cc(F)cc(F)c4F)C3)nc2=O)cc1 [Compound 779] | > 16 |
| NCCC[C@H](N)CCCN1CCC(NC(N)=O)NC1=O (stereo partly shown) [Compound 135] | > 16 |
| NCCCN(CCc1ccncc1)Cc1ccc(-c2c[nH]c(NC(=O)Nc3cc(F)c(F)cc3F)nc2=O)cc1 [Compound 354] | > 16 |
| NCCCC(N)c1ccc(-n2ccc(NC(N)=O)nc2=O)cc1 (stereo not shown) [Compound 146] | > 16 |
| N=C(N)NCCCCN1CCN(c2c[nH]c(Nc3nc4ccccc4[nH]3)nc2=O)CC1 [Compound 531] | > 16 |
| N=C(N)NCCCNCc1ccc(-c2c[nH]c(NC(=O)NC3CCN(Cc4cc(F)c(F)cc4F)C3)nc2=O)cc1 (stereo not shown) [Compound 735] | > 16 |
| Cn1c(Nc2nc(=O)c(-c3ccc(CN(CCCN)CCCN)c(F)c3)c[nH]2)nc2ccccc21 [Compound 428] | > 16 |
| NCCCNCc1ccc(-c2c[nH]c(NC(=O)NCc3ccc(Cl)cc3Cl)nc2=O)cc1F [Compound 463] | < 16 |
| NCCCNCc1c(F)cc(-c2c[nH]c(NC(=O)Nc3cc(F)c(F)cc3F)nc2=O)cc1F [Compound 287] | > 16 |
| NCCCNCc1ccc(-c2c[nH]c(Nc3ccccc3C(F)(F)F)nc2=O)cc1C(F)(F)F [Compound 376] | > 16 |
| N=C(N)NCCCCCN1CCC(c2c[nH]c(NC(=O)Nc3cccc(Cl)c3F)nc2=O)CC1 [Compound 583] | > 16 |
| Cc1nc(-c2cccc(NC(=O)Nc3ccn(CCC[C@H](CCCNC(=N)N)NCCCN)c(=O)n3)c2)no1 [Compound 151] | > 16 |
| NCCCNCc1ccc(-c2c[nH]c(NC(=O)Nc3ccc(Cl)cc3F)nc2=O)cc1F [Compound 436] | < 16 |
| NCCCNCc1ccc(-n2cc(F)c(NC(N)=O)nc2=O)cc1 [Compound 138] | > 16 |
| Cc1cc(CNCCCN)ccc1-c1c[nH]c(NC(=O)Nc2ccccc2OC(F)(F)F)nc1=O [Compound 500] | < 16 |
| NCCCCN1CCCC(c2c[nH]c(NC(=O)Nc3ccccc3OC(F)(F)F)nc2=O)CC1 (stereo not shown) [Compound 524] | > 16 |
| NCc1ccc(-n2ccc(NC(=O)NC3CCCNC3)nc2=O)cc1 (stereo not shown) [Compound 1305] | > 16 |
| NCCCCn1ccc(N)nc1=O [Compound 129] | > 16 |

| SMILES | MIC [µg/mL] |
| --- | --- |
| NCCCN1CCN(CCc2c[nH]c(NC(=O)Nc3ccccc3OC(F)(F)F)nc2=O)CC1 [Compound 369] | > 16 |
| CN(C(=O)C[C@H](CCCNC(=N)N)NC(=O)CCc1c[nH]cn1)C1CNC(NC(N)=O)=NC1=O (stereo partly shown) [Compound 111] | > 16 |
| NCCCNCc1ccc(-c2c[nH]c(NC(=O)Nc3ccc(N4C(=O)C=CC4=O)cc3)nc2=O)cc1F [Compound 417] | > 16 |
| N=C(N)NCCCCN[C@@H](CCCNC(=N)N)CCCn1ccc(NC(N)=O)nc1=O [Compound 134] | > 16 |
| NCCCNCc1ccc(-c2c[nH]c(NC(=O)NCCc3ccc(F)cc3)nc2=O)cc1F [Compound 435] | > 16 |
| N=C(N)NCCCN1CCCC(c2c[nH]c(NC(=O)Nc3ccccc3OC(F)(F)F)nc2=O)CC1 (stereo not shown) [Compound 517] | > 16 |
| N#CCCCN(CCCN)Cc1ccc(-c2c[nH]c(NC(=O)Nc3ccccc3OC(F)(F)F)nc2=O)cc1 [Compound 398] | > 16 |
| N=C(N)NCCCCN1CCCC(c2c[nH]c(NC(=O)Nc3ccccc3OC(F)(F)F)nc2=O)CC1 (stereo not shown) [Compound 525] | > 16 |
| O=C(O)CCCNCc1ccc(-c2c[nH]c(NC(=O)Nc3ccccc3OC(F)(F)F)nc2=O)cc1 [Compound 328] | > 16 |
| CN1CCN(c2ccc(NC(=O)Nc3nc(=O)c(-c4ccc(CN(CCCN)CCCN)cc4)c[nH]3)cc2)CC1 [Compound 191] | < 16 |
| N=C(N)NCCCC[C@H](CCn1ccc(NC(N)=O)nc1=O)NCCCN [Compound 125] | > 16 |
| NCCCCN1CCC(c2c[nH]c(Nc3nc4ccccc4[nH]3)nc2=O)CC1 [Compound 509] | > 16 |
| N=C(N)NCCCN(CCCN)Cc1ccc(-c2c[nH]c(NC(=O)NCCc3ccc(Cl)c(Cl)c3)nc2=O)cc1 [Compound 478] | > 16 |
| NCCCNCc1ccc(-c2c[nH]c(NC(=O)Nc3cccc(Cl)c3Cl)nc2=O)cc1Cl [Compound 243] | < 16 |
| CN(C(=O)C[C@H](CCCNC(=N)N)NCCCCNC(=N)N)C1CNC(NC(N)=O)=NC1=O (stereo partly shown) [Compound 109] | < 16 |
| NCCCNCc1ccc(-c2c[nH]c(NC(=O)NCc3ccc(Cl)c(Cl)c3)nc2=O)cc1F [Compound 464] | > 16 |
| NCCCNCc1ccc(-c2c[nH]c(NC(=O)Nc3c(Cl)cccc3Cl)nc2=O)cc1F [Compound 479] | > 16 |
| NCCCNCc1ccc(-n2ccc(N)nc2=O)cc1 [Compound 132] | > 16 |
| NCCCNCc1ccc(-c2c[nH]c(NC(=O)NC3CN(Cc4cc(F)c(F)cc4F)C3)nc2=O)cc1 [Compound 710] | > 16 |
| NCCCNCc1ccc(-c2c[nH]c(Nc3ccc(C(F)(F)F)cc3)nc2=O)cc1C(F)(F)F [Compound 382] | < 16 |
| NCCCN(CCCN)Cc1ccc(-c2c[nH]c(Nc3nc4cc(C(F)(F)F)cc(Cl)c4o3)nc2=O)cc1F [Compound 403] | > 16 |
| C[S+]([O-])CCCNCc1ccc(-c2c[nH]c(NC(=O)Nc3cc(F)c(F)cc3F)nc2=O)cc1 (stereo not shown) [Compound 302] | > 16 |
| NCCCN1CCC[C@H](NC(=O)Nc2nc(=O)c(-c3ccc(CN)cc3)c[nH]2)C1 [Compound 1303] | > 16 |
| NCCCNCc1ccc(-c2c[nH]c(NC(=O)NCCc3c(Cl)cccc3Cl)nc2=O)cc1F [Compound 437] | > 16 |
| N=C(N)NCCCC(CCCn1ccc(NC(=O)c2ccc(N3CCOCC3)cc2)nc1=O)NCCCN (stereo not shown) [Compound 189] | > 16 |
| CC(N)(CO)C(=O)Nc1ccc(C(=O)Nc2ccn(CCC[C@H](CCCNC(=N)N)NCCCN)c(=O)n2)cc1 (stereo partly shown) [Compound 199] | < 16 |

| SMILES | MIC [µg/mL] |
| --- | --- |
| NCCCN(CCCN)Cc1ccc(-c2c[nH]c(Nc3nc4ccccc4o3)nc2=O)cc1F [Compound 363] | > 16 |
| NCCCCCN1CCC(c2c[nH]c(NC(=O)Nc3cc(F)c(F)cc3F)nc2=O)CC1 [Compound 538] | > 16 |
| NCCCN[C@@H]1CCN(CCc2c[nH]c(NC(=O)Nc3ccccc3OC(F)(F)F)nc2=O)C1 [Compound 384] | > 16 |
| COc1ccc(C(=O)Nc2ccn(CCCC(CCCNC(=N)N)NCCCN)c(=O)n2)cc1 (stereo not shown) [Compound 177] | > 16 |
| NCCCN(CCCN)Cc1ccc(-c2c[nH]c(NC(=O)Nc3cccc(Cl)c3Cl)nc2=O)cc1F [Compound 307] | < 16 |
| NCCCNCc1ccc(-c2c[nH]c(Nc3nc4cc(F)c(F)cc4[nH]3)nc2=O)cc1 [Compound 438] | < 16 |
| NCCCN(CCCN)Cc1ccc(-c2c[nH]c(Nc3nc4ccc(C(F)(F)F)cc4o3)nc2=O)cc1F [Compound 404] | > 16 |
| NCCCNCc1ccc(-c2c[nH]c(NC(=O)Nc3ccc(OC(F)(F)F)cc3)nc2=O)cc1F [Compound 249] | < 16 |
| O=C(Nc1nc(=O)c(-c2ccc(CNCc3nccs3)cc2)c[nH]1)Nc1ccccc1OC(F)(F)F [Compound 291] | > 16 |
| NCCCNCc1ccc(-c2c[nH]c(NCCc3nc4cc(F)c(F)cc4o3)nc2=O)cc1F [Compound 608] | > 16 |
| NCCCNCc1ccc(-c2c[nH]c(NC(=O)Nc3ccccc3OCCCN)nc2=O)cc1 [Compound 1296] | > 16 |
| NCCCCN1CCN(c2c[nH]c(Nc3nc4ccccc4[nH]3)nc2=O)CC1 [Compound 530] | > 16 |
| N=C(N)NCCCCCN1CCC(c2c[nH]c(NC(=O)Nc3cc(F)c(F)cc3F)nc2=O)CC1 [Compound 545] | > 16 |
| CSCCNCc1ccc(-c2c[nH]c(NC(=O)Nc3cc(F)c(F)cc3F)nc2=O)cc1Cl [Compound 268] | > 16 |
| NCCCNCc1ccc(-c2c[nH]c(NC(=O)NCCc3nc4ccccc4[nH]3)nc2=O)cc1F [Compound 555] | > 16 |
| CSc1ccc(C(=O)Nc2ccn(CCCC(CCCNC(=N)N)NCCCN)c(=O)n2)cc1 (stereo not shown) [Compound 175] | > 16 |
| NC1CCN(Cc2ccc(-c3c[nH]c(NC(=O)Nc4ccccc4OC(F)(F)F)nc3=O)cc2)CC1 [Compound 251] | < 16 |
| NCCCN(CCC1CC1)Cc1ccc(-c2c[nH]c(NC(=O)Nc3ccccc3OC(F)(F)F)nc2=O)cc1 [Compound 397] | > 16 |
| NCCC[C@H](N)CCCn1ccc(NC(N)=O)nc1=O [Compound 122] | > 16 |
| NCCCNCc1ccc(-c2c[nH]c(NC(=O)Nc3cccc(Cl)c3Cl)nc2=O)cc1F [Compound 252] | < 16 |
| N#Cc1ccc(NC(=O)Nc2nc(=O)c(-c3ccc(CN(CCCN)CCCNC(=N)N)cc3)c[nH]2)cc1 [Compound 452] | < 16 |
| O=C(Nc1nc(=O)c(-c2ccc(CNCCC3CC3)cc2)c[nH]1)Nc1ccccc1OC(F)(F)F [Compound 441] | > 16 |
| NCCCNCc1ccc(-c2c[nH]c(NC(=O)Nc3cc(Cl)cc(Cl)c3)nc2=O)cc1F [Compound 387] | > 16 |
| N=C(N)NCCCCNC1CCN(c2c[nH]c(NC(=O)Nc3ccccc3OC(F)(F)F)nc2=O)CC1 [Compound 605] | > 16 |
